The results in this text go back to article PMC12257510, “Structure-Guided Design of a KMT9 Inhibitor Prodrug with Cellular Activity” (Journal of Medicinal Chemistry, 2025).

For assay [1], the target named is T1, KMT9 (Homo sapiens, UniProt Q9Y5N5).
T1 sequence (Q9Y5N5 1-214): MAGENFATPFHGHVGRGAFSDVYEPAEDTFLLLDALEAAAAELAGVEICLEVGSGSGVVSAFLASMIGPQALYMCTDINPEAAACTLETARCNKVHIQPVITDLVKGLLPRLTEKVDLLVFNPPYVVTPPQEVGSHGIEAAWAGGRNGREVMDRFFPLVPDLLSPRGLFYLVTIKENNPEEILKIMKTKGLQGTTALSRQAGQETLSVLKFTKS
T1 sequence (Q9UI30 1-125 partner): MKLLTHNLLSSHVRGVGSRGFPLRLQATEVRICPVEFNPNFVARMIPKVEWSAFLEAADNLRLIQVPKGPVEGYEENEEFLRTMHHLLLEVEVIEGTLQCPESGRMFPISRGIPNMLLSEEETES
Description: KMT9 methyltransferase inhibition assay (3H-SAM, ETF1 substrate).
Description: The assay was carried out in 0.5 mL Eppendorf tubes in duplicates. Assay buffer consisted of 50 mM BTP, 1 mM MgCl2, 1 mM DTT and 0,01% Triton-X100 at a pH of 8.5 (adjusted using 1 M HCl and 1 M NaOH). 20X inhibitor stock (in DMSO), 2× enzyme stock and 4× substrate mix (both in assay buffer) were prepared. The substrate mix consisted of Tritium-labeled S-adenosylmethionine (3H-SAM), S-adenosylmethionine (SAM) and eukaryotic peptide chain release factor subunit1 (, residues 140–275) (ETF1). Final assay concentrations were set to 25 nM KMT9, 0.3 μM 3H-SAM, 0.7 μM SAM and 5 μM ETF1. […] Five μL of 4× substrate mix was added to initiate the reaction. The final reaction volume was 20 μL. For the positive control, the compound was replaced by DMSO; for the negative control, the compound was replaced by DMSO and KMT9 was replaced by assay buffer. The reaction mix was incubated in an Eppendorf thermomixer comfort at 30 °C for 2 h, shaking at 300 rpm. The reaction was quenched using 5 μL 50% trichloroacetic acid (TCA) and incubated at 25 °C for 5 min. Twenty-two μL of the mixture was transferred into 96-well MultiScreenHTS FB filter plates (Merck KGaA, Darmstadt, Germany) and washed four times with 10% TCA and two times with 100% ethanol. The plate was dried overnight, the filters were transferred into individual 6 mL Pony Vials (PerkinElmer Inc., Waltham, MA, USA) and incubated in 3 mL of Ultima Gold scintillation cocktail (PerkinElmer Inc., Waltham, MA, USA) for 30 min. The scintillation signal was measured for 3× 1 min using TriCarb 2910 TR (PerkinElmer) scintillation counter in 3H CPM mode (LL: 0, UL: 18.6).
Inhibition was calculated using the following formula: Inhibition[%]=(1−xc−xpos/xpos−xneg)×100
With xc: signal of compound, xpos: mean signal of positive control, xneg: mean signal of negative control. Data fitting was carried out by GraphPad 7.0 using nonlinear fit ([Inhibitor] vs response – variable slope (four parameters)).

Assay [2] concerns the target T1, KMT9. Description: Microscale thermophoresis (MST) binding assay. As to the method: To determine the binding affinity of the compound and KMT9, microscale thermophoresis (MST) analysis was performed with a NanoTemper Monolith NT.115 instrument (NanoTemper Technologies GmbH). KMT9 was labeled with a RED-Tris-NTA labeling kit (NanoTemper Technologies GmbH) based on the manufacturer’s instructions. Buffer including 25 mM HEPES (pH 7.5), 100 mM NaCl, 1 mM DTT and 0.05% Tween was used for the reaction buffer. Varying concentrations of compounds were titrated against His-tag labeled KMT9 proteins (20 nM). Samples were loaded into standard Capillaries (NanoTemper Technologies GmbH) and MST measurements were performed using 40% MST power and 100% LED power. For each set of binding experiments, MST measurement was carried out with Binding Affinity module in MO. Control program under Nano-RED excitation. Data sets were processed with the MO.Affinity Analysis software (NanoTemper Technologies GmbH).
On the technique in general: In MST a laser heats a spot of the sample, and binding alters the fluorescence response.

For assay [3], the target named is T1, KMT9. Kind of assay: Thermal shift assay (SyproOrange). The format is binding. The following applies: read-out: ΔTm. As to the method:
The assay was carried out in 96-well Hard-Shell PCR plates (Bio-Rad Laboratories Inc.). […] Final assay concentrations were set to 500 μM of compound 8, 2 μM KMT9 and 5× SO. One μL of 20× compound, 4 μL of assay buffer, 10 μL of 2× KMT9 and 5 μL of 4× SO were pipetted. For the no-compound control, 20× inhibitor stock was replaced by DMSO. The final volume was 20 μL. The plate was spun down at 700 rpm for 1 min using a Hettich UNIVERSAL 320 centrifuge and incubated at 25 °C, shaking at 600 rpm. After incubation, the plate was spun down for 1 min at 700 rpm and measurement was conducted using a CFX96 Touch Real-Time PCR Detection System (Bio-Rad Laboratories Inc.). The plate was equilibrated at 20 °C for 4 min and then heated stepwise at a rate of 1 °C per 15 s until 95 °C. After every step, fluorescence was measured in FRET mode. Calculation of melting points was conducted by a Boltzman sigmoidal model using GraphPad Prism 7.0.

Setting [4] is: MST, binding to KMT9, read-out: Kd.
Setting [5] is: thermal shift, 2 μM KMT9, 500 μM compound.

Like-named read-outs stand apart in the source and are kept apart here.

Usually IC50 stands for the concentration that gives 50% inhibition. High values mean weaker potency in that assay, low ones greater potency in that assay. The Kd is the free concentration of one partner at which half of the binding sites on the other are occupied at equilibrium, for simple one-to-one binding. Usually ΔTm stands for the shift of the melting midpoint relative to a reference. `Nc1ncnc2c1ncn2[C@@H]1O[C@H](CN(CCCNCCc2ccccc2)CC[C@H](N)C(=O)O)[C@@H](O)[C@H]1O` [compound 5b, (S)-2-Amino-4-((((2R,3S,4R,5R)-5-(6-amino-9H-purin-9-yl)-3,4-dihydroxytetrahydrofuran-2-Yyl)methyl)(3-(phenethylamino)propyl)amino)butanoic acid]: the 50% inhibitory concentration (IC50) in assay [1] was 0.034 µM. Also, the dissociation constant Kd in assay [2] was 0.01 µM. The ΔTm at 500 µM in assay [3] amounted to 20.9 °C.

The compound `Nc1ncnc2c1ncn2[C@@H]1O[C@H](CN(CCCNCCCc2ccccc2)CC[C@H](N)C(=O)O)[C@@H](O)[C@H]1O` [compound 5c, (S)-2-Amino-4-((((2R,3S,4R,5R)-5-(6-amino-9H-purin-9-yl)-3,4-dihydroxytetrahydro-furan-2-yl)methyl)(3-((3-phenylpropyl)amino)propyl)amino)butanoic acid] returned an IC50 in assay [1] of 0.064 µM. For the same compound, binding in assay [2] was put at a Kd of 0.02 µM. Also, the ΔTm at 500 µM in assay [3] is 21.3 °C.

In turn, `Nc1ncnc2c1ncn2[C@@H]1O[C@H](CN(CC[C@H](N)C(=O)O)CC[C@H](N)c2ccccc2)[C@@H](O)[C@H]1O` [compound 2a] yielded a concentration for half-maximal inhibition (IC50) in assay [1] of 3 µM. This compound also registered a Kd in assay [2] of 15 µM. Further, the ΔTm at 500 µM in assay [3] is 10.6 °C.

The compound `C[C@@H](CN(CCCN)C[C@H]1O[C@@H](n2cnc3c(N)ncnc32)[C@H](O)[C@@H]1O)N1CCC(O)CC1` [compound 4e, (2R,3R,4S,5R)-2-(6-Amino-9H-purin-9-yl)-5-(((3-aminopropyl)((s)-2-(4-hydroxypiperidin-1-yl)propyl)amino)methyl)tetrahydrofuran-3,4-diol] yielded an IC50 in assay [1] of more than 500 µM. Also, the Kd in assay [2] (setting [4]) worked out at 50 µM. Further, the ΔTm at 500 µM in assay [3] stood at 2.78 °C.

`CNc1ncnc2c1ccn2[C@@H]1C[C@H](CN(CCCNCCc2ccc(Oc3ccccc3)cc2)CC[C@H](N)C(=O)O)[C@@H](O)[C@H]1O` [compound 7a, (S)-2-Amino-4-((((1R,2R,3S,4R)-2,3-dihydroxy-4-(4-(methylamino)-7H-pyrrolo[2,3-d]pyrimidin-7-yl)cyclopentyl)methyl)(3-((4-phenoxyphenethyl)amino)propyl)amino) Butanoic acid] had an IC50 in assay [1] of 0.6 µM. Also, in assay [2] (setting [4]), the Kd came out at 0.07 µM. In addition, the ΔTm at 500 µM in assay [3] (setting [5]) is 17.5 °C.

As for `Nc1ncnc2c1ncn2[C@@H]1O[C@H](CSCC[C@H](N)C(=O)O)[C@@H](O)[C@H]1O` [SAH, S-adenosyl-L-homocysteine, reference compound], in assay [2] (setting [4]), the Kd was determined as 10.9 µM.

With `CNc1ncnc2c1ccn2C1CC(CN(CCCOCCc2ccc(Oc3ccc(Cl)cc3)c(F)c2)CCC(N)C(=O)O)C(O)C1O` [compound 7b-N, (S)-2-Amino-4-((3-(4-(4-chlorophenoxy)-3-fluorophenethoxy)propyl)(((1R,2R,3S,4R)-2,3-dihydroxy-4-(4-(methylamino)-7H-pyrrolo[2,3-d]pyrimidin-7-yl)cyclopentyl)methyl)amino)butanoic Acid], the “Decrease of binding affinity compared to compound 7b” value in assay [2] (Kd ratio vs compound 7b) was “more than 1000 fold”. Also, the Kd in assay [2] (setting [4]) was approximately 56 µM.

`Nc1ncnc2c1ncn2[C@@H]1O[C@H](CN(CCCNCc2ccccc2)CC[C@H](N)C(=O)O)[C@@H](O)[C@H]1O` [compound 5a, (S)-2-Amino-4-((((2R,3S,4R,5R)-5-(6-amino-9H-purin-9-yl)-3,4-dihydroxytetrahydrofuran-2-yl)methyl)(3-(benzylamino)propyl)amino)butanoic acid] had an IC50 in assay [1] of 0.1 µM. Besides, the Kd in assay [2] is 0.04 µM. The ΔTm at 500 µM in assay [3] was determined as 19.6 °C.

`NCCCN(CCC(N)C(F)F)C[C@H]1O[C@@H](n2cnc3c(N)ncnc32)[C@H](O)[C@@H]1O` (stereo partly drawn) [compound 4b, (2R,3S,4R,5R)-2-(((3-Amino-4,4-difluorobutyl)(3-aminopropyl)amino)methyl)-5-(6-amino-9H-purin-9-yl)tetrahydrofuran-3,4-diol]: the midpoint of inhibition in assay [1], the IC50, lay at 200 µM. This compound also displayed a Kd in assay [2] of 100 µM. Further, the ΔTm at 500 µM in assay [3] came to 2.86 °C.

Turning to `NCCCN(C[C@H]1C=CCN1)C[C@H]1O[C@@H](n2cnc3c(N)ncnc32)[C@H](O)[C@@H]1O` [compound 4f, (2R,3R,4S,5R)-2-(6-Amino-9H-purin-9-yl)-5-(((3-aminopropyl)(((R)-2,5-dihydro-1H-pyrrol-2-yl)methyl)amino)methyl)tetrahydrofuran-3,4-diol], in assay [1], half-maximal inhibition (IC50) required 253 µM. Moreover, in assay [2], the Kd is more than 500 µM. In addition, the ΔTm at 500 µM in assay [3] is -0.52 °C.

For `CN(C)CCCN(CC[C@H](N)C(=O)O)C[C@H]1O[C@@H](n2cnc3c(N)ncnc32)[C@H](O)[C@@H]1O` [compound 3b, reference compound], it took 6 µM to reach half-maximal inhibition in assay [1] (IC50). Further, the Kd in assay [2] (setting [4]) worked out at 1 µM. Besides, in assay [2] (vs compound 2d), the “Reduction of potency compared to compound 2d” value is given as approximately 100 fold. Besides, the shift in melting temperature (ΔTm) at 500 µM in assay [3] was found to be 9.55 °C.

Compound `NCCCN(CCC(N)C(F)(F)F)C[C@H]1O[C@@H](n2cnc3c(N)ncnc32)[C@H](O)[C@@H]1O` (stereo partly drawn) [compound 4c, (2R,3S,4R,5R)-2-(((3-Amino-4,4,4-trifluorobutyl)(3-aminopropyl)amino)methyl)-5-(6-amino-9H-purin-9-yl)tetrahydrofuran-3,4-diol] gave an IC50 in assay [1] of 500 µM. In assay [2] (setting [4]), the Kd was more than 500 µM. For the same compound, in assay [3] (setting [5]), the ΔTm at 500 µM was determined as 3.43 °C.

For `Nc1ncnc2c1ncn2[C@@H]1O[C@H](CN(CC[C@H](N)C(=O)O)CC[C@H](N)C(=O)O)[C@@H](O)[C@H]1O` [compound 1, (2S,2’S)-4,4’-((((2R,3S,4R,5R)-5-(6-Amino-9H-purin-9-yl)-3,4-dihydroxytetrahydrofuran-2-yl)methyl)azanediyl)bis(2-aminobutanoic Acid)], the dissociation constant (Kd) in assay [2] (setting [4]) was 6.8 µM.
